Drawing on patent US20150284375A1 (AJINOMOTO CO., INC., priority 2012, published 2015), this text covers IC50 for 29 compounds.

The experiment deals with T1, human TRPA1 (Homo sapiens, UniProt O75762).
T1 construct: expressed in transfected cells; host or cells: Human embryonic kidney-derived 293T cells, transiently transfected with the pcDNA3.1/zeo(+) human TRPA1 plasmid
T1 sequence (O75762 whole entry): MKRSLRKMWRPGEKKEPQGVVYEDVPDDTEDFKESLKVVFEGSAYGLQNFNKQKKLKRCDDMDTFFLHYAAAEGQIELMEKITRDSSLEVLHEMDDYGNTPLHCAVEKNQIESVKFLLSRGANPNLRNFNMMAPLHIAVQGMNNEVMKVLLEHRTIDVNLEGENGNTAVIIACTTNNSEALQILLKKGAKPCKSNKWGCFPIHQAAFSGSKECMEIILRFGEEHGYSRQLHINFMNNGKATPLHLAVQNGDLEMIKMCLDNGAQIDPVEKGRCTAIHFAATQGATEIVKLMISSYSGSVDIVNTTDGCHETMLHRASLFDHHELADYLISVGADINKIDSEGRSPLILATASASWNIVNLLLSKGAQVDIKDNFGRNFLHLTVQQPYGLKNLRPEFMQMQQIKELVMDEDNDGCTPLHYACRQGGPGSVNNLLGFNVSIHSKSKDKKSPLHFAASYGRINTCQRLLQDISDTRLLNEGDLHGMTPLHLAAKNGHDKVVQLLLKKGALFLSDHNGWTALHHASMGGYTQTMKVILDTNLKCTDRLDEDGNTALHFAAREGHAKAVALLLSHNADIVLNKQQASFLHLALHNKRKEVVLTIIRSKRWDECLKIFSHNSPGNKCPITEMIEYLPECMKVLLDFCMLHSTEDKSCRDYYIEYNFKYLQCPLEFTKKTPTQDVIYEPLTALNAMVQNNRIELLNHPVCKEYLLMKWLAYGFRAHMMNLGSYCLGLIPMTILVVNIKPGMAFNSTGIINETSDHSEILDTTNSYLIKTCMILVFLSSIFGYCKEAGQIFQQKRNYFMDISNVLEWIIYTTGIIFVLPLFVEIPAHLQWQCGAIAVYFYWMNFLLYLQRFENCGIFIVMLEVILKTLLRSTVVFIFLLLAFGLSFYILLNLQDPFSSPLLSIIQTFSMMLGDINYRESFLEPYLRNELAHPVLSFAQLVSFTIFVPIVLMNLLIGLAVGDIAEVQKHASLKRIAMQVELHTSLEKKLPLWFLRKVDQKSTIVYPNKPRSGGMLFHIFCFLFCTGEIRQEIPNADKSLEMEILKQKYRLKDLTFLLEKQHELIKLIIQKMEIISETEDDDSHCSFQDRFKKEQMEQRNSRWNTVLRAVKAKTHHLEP
The experiment is described as follows: Measurement of TRPA1 antagonist activity (intracellular calcium increase, FLIPR, allylisothiocyanate stimulation). It counts as cell-based. Particulars: allylisothiocyanate 20 μM stimulation, FLIPR calcium assay; read-out: antagonism hTRPA1. An outline of the steps:
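IC50 derives from a sigmoid fit of inhibition of the 5-min FLIPR fluorescence change evoked by 20 μM allylisothiocyanate, normalized between agonist and buffer responses. Test substance, diluted in HBSS/20 mM HEPES pH 7.2 plus 0.1% BSA, was applied 10 min beforehand at room temperature to Calcium4-loaded 293T cells transiently expressing human TRPA1.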
(A change in cytosolic calcium serves as a functional read-out for many receptors and channels.)
For the compound `O=C(NCc1ccc(Oc2ccnc(C(F)(F)F)c2)cc1)[C@@H]1CCCN1S(=O)(=O)c1ccco1` [Example 155, (2S)-1-(2-furylsulfonyl)-N-[[4-[[2-(trifluoromethyl)-4-pyridyl]oxy]phenyl]methyl]pyrrolidine-2-carboxamide], the IC50 was determined as 5700 nM. For `O=C(NCc1ccc(Oc2ccnc(C(F)(F)F)c2)cc1)[C@@H]1CCCN1S(=O)(=O)c1ccsc1` [Example 156, (2S)-1-(3-thienylsulfonyl)-N-[[4-[[2-(trifluoromethyl)-4-pyridyl]oxy]phenyl]methyl]pyrrolidine-2-carboxamide] the value was 1000 nM; for `O=C(NCc1cccc(Oc2ccc(C(F)(F)F)cc2)c1)[C@@H]1C[C@H](F)CN1S(=O)(=O)c1ccc(F)cc1` [Example 157, (2S,4S)-4-fluoro-1-(4-fluorophenyl)sulfonyl-N-[[3-[4-(trifluoromethyl)phenoxy]phenyl]methyl]pyrrolidine-2-carboxamide], 840 nM. For `O=C(NCc1cccc(Oc2ccc(C(F)(F)F)cc2)c1)[C@@H]1CC(F)(F)CN1S(=O)(=O)c1ccc(F)cc1` [Example 159, (2S)-4,4-difluoro-1-(4-fluorophenyl)sulfonyl-N-[[3-[4-(trifluoromethyl)phenoxy]phenyl]methyl]pyrrolidine-2-carboxamide] the value was 210 nM; for `O=C(NCc1cccc(Oc2ccc(C(F)(F)F)cc2)c1)[C@@H]1C=CCN1S(=O)(=O)c1ccco1` [Example 160, (2S)-1-(2-furylsulfonyl)-N-[[3-[4-(trifluoromethyl)phenoxy]phenyl]methyl]-2,5-dihydropyrrole-2-carboxamide], 210 nM. Regarding `O=C(NCc1cccc(Oc2ccc(C(F)(F)F)cc2)c1)[C@@H]1C=CCN1S(=O)(=O)c1ccsc1` [Example 161, (2S)-1-(3-thienylsulfonyl)-N-[[3-[4-(trifluoromethyl)phenoxy]phenyl]methyl]-2,5-dihydropyrrole-2-carboxamide], the IC50 amounted to 57 nM. For `O=C(NCc1cccc(Oc2ccc(C(F)(F)F)cc2)c1)[C@@H]1CCCN1S(=O)(=O)c1ccoc1` [Example 162, (2S)-1-(3-furylsulfonyl)-N-[[3-[4-(trifluoromethyl)phenoxy]phenyl]methyl]pyrrolidine-2-carboxamide] the value was 96 nM; for `O=C(NCc1cccc(OCc2ccc(C(F)(F)F)cc2)c1)[C@@H]1CCCN1S(=O)(=O)c1ccc(F)cc1` [Example 163, (2S)-1-(4-fluorophenyl)sulfonyl-N-[[3-[[4-(trifluoromethyl)phenyl]methoxy]phenyl]methyl]pyrrolidine-2-carboxamide], 27 nM; for `O=C(NCc1cccc(OCc2ccc(C(F)(F)F)cc2)c1)[C@@H]1C[C@H](F)CN1S(=O)(=O)c1ccc(F)cc1` [Example 164, (2S,4S)-4-fluoro-1-(4-fluorophenyl)sulfonyl-N-[[3-[[4-(trifluoromethyl)phenyl]methoxy]phenyl]methyl]pyrrolidine-2-carboxamide], 450 nM.

Take `O=C(NCc1cccc(OCc2ccc(C(F)(F)F)cc2)c1)[C@@H]1C[C@@H](F)CN1S(=O)(=O)c1ccc(F)cc1` [Example 165, (2S,4R)-4-fluoro-1-(4-fluorophenyl)sulfonyl-N-[[3-[[4-(trifluoromethyl)phenyl]methoxy]phenyl]methyl]pyrrolidine-2-carboxamide]: the IC50 was found to be 150 nM. For `O=C(NCc1cccc(OCc2ccc(C(F)(F)F)cc2)c1)[C@@H]1CC(F)(F)CN1S(=O)(=O)c1ccc(F)cc1` [Example 166, (2S)-4,4-difluoro-1-(4-fluorophenyl)sulfonyl-N-[[3-[[4-(trifluoromethyl)phenyl]methoxy]phenyl]methyl]pyrrolidine-2-carboxamide] the value was 110 nM. With `O=C(NCc1cccc(OCc2ccc(C(F)(F)F)cc2)c1)[C@@H]1[C@@H](O)CCN1S(=O)(=O)c1ccc(F)cc1` [Example 167, (2S,3S)-1-(4-fluorophenyl)sulfonyl-3-hydroxy-N-[[3-[[4-(trifluoromethyl)phenyl]methoxy]phenyl]methyl]pyrrolidine-2-carboxamide] the figure was 240 nM; with `O=C(NCc1cccc(OCc2ccc(C(F)(F)F)cc2)c1)[C@@H]1[C@H](O)CCN1S(=O)(=O)c1ccc(F)cc1` [Example 168, (2S,3R)-1-(4-fluorophenyl)sulfonyl-3-hydroxy-N-[[3-[[4-(trifluoromethyl)phenyl]methoxy]phenyl]methyl]pyrrolidine-2-carboxamide], 2200 nM. With `O=C(NCc1cccc(OCc2ccc(C(F)(F)F)cc2)c1)[C@@H]1C[C@@H](O)CN1S(=O)(=O)c1ccc(F)cc1` [Example 169, (2S,4R)-1-(4-fluorophenyl)sulfonyl-4-hydroxy-N-[[3-[[4-(trifluoromethyl)phenyl]methoxy]phenyl]methyl]pyrrolidine-2-carboxamide] the figure was 290 nM; with `O=C(NCc1cccc(OCc2ccc(C(F)(F)F)cc2)c1)[C@@H]1C[C@H](O)CN1S(=O)(=O)c1ccc(F)cc1` [Example 170, (2S,4S)-1-(4-fluorophenyl)sulfonyl-4-hydroxy-N-[[3-[[4-(trifluoromethyl)phenyl]methoxy]phenyl]methyl]pyrrolidine-2-carboxamide], 1700 nM; with `O=C(NCc1cccc(OCc2ccc(C(F)(F)F)cc2)c1)[C@@H]1[C@H]2C[C@H]2CN1S(=O)(=O)c1ccc(F)cc1` [Example 171, (1R,4S,5S)-3-(4-fluorophenyl)sulfonyl-N-[[3-[[4-(trifluoromethyl)phenyl]methoxy]phenyl]methyl]-3-azabicyclo[3.1.0]hexane-4-carboxamide], 1900 nM. Regarding `O=C(NCc1cccc(OCc2ccc(C(F)(F)F)cc2)c1)[C@@H]1[C@@H]2C[C@@H]2CN1S(=O)(=O)c1ccc(F)cc1` [Example 172, (1S,4S,5R)-3-(4-fluorophenyl)sulfonyl-N-[[3-[[4-(trifluoromethyl)phenyl]methoxy]phenyl]methyl]-3-azabicyclo[3.1.0]hexane-4-carboxamide], the IC50 amounted to 1200 nM.

For `O=C(NCc1cccc(OCc2ccc(C(F)(F)F)cc2)c1)[C@@H]1C[C@H]2C[C@H]2N1S(=O)(=O)c1ccc(F)cc1` [Example 173, (1R,3S,5R)-4-(4-fluorophenyl)sulfonyl-N-[[3-[[4-(trifluoromethyl)phenyl]methoxy]phenyl]methyl]-4-azabicyclo[3.1.0]hexane-3-carboxamide], the IC50 was determined as 99 nM. Take `O=C(NCc1cccc(OCc2ccc(C(F)(F)F)cc2)c1)[C@@H]1C[C@@H]2C[C@@H]2N1S(=O)(=O)c1ccc(F)cc1` [Example 174, (1S,3S,5S)-4-(4-fluorophenyl)sulfonyl-N-[[3-[[4-(trifluoromethyl)phenyl]methoxy]phenyl]methyl]-4-azabicyclo[3.1.0]hexane-3-carboxamide]: the IC50 turned out to be 49 nM. For `O=C(NCc1cccc(OCc2ccc(C(F)(F)F)cc2)c1)[C@@H]1CCCCN1S(=O)(=O)c1ccc(F)cc1` [Example 175, (2S)-1-(4-fluorophenyl)sulfonyl-N-[[3-[[4-(trifluoromethyl)phenyl]methoxy]phenyl]methyl]piperidine-2-carboxamide] the value was 780 nM; for `O=C(NCc1cccc(OCc2ccc(C(F)(F)F)cc2)c1)[C@@H]1CCCN1S(=O)(=O)c1ccco1` [Example 176, (2S)-1-(2-furylsulfonyl)-N-[[3-[[4-(trifluoromethyl)phenyl]methoxy]phenyl]methyl]pyrrolidine-2-carboxamide], 36 nM. For `O=C(NCc1cccc(OCc2ccc(C(F)(F)F)cc2)c1)[C@@H]1CCCN1S(=O)(=O)c1ccoc1` [Example 177, (2S)-1-(3-furylsulfonyl)-N-[[3-[[4-(trifluoromethyl)phenyl]methoxy]phenyl]methyl]pyrrolidine-2-carboxamide] the value was 27 nM; for `O=C(NCc1cccc(OCc2ccc(C(F)(F)F)cc2)c1)[C@@H]1CCCN1S(=O)(=O)c1ccsc1` [Example 178, (2S)-1-(3-thienylsulfonyl)-N-[[3-[[4-(trifluoromethyl)phenyl]methoxy]phenyl]methyl]pyrrolidine-2-carboxamide], 8.6 nM.

With `O=C(NCc1cccc(OCc2ccc(C(F)(F)F)cc2)c1)[C@@H]1[C@@H](O)CCN1S(=O)(=O)c1ccco1` [Example 179, (2S,3S)-1-(2-furylsulfonyl)-3-hydroxy-N-[[3-[[4-(trifluoromethyl)phenyl]methoxy]phenyl]methyl]pyrrolidine-2-carboxamide], the IC50 was found to be 600 nM. With `O=C(NCc1cccc(OCc2ccc(C(F)(F)F)cc2)c1)[C@@H]1C[C@@H](O)CN1S(=O)(=O)c1ccco1` [Example 180, (2S,4R)-1-(2-furylsulfonyl)-4-hydroxy-N-[[3-[[4-(trifluoromethyl)phenyl]methoxy]phenyl]methyl]pyrrolidine-2-carboxamide] the figure was 1300 nM; with `O=C(NCc1cccc(OCc2ccccc2)c1)[C@@H]1CCCN1S(=O)(=O)c1ccco1` [Example 181, (2S)-N-[(3-benzyloxyphenyl)methyl]-1-(2-furylsulfonyl)pyrrolidine-2-carboxamide], 100 nM; with `O=C(NCc1cccc(OCc2ccccc2)c1)[C@@H]1C=CCN1S(=O)(=O)c1ccco1` [Example 182, (2S)-N-[(3-benzyloxyphenyl)methyl]-1-(2-furylsulfonyl)-2,5-dihydropyrrole-2-carboxamide], 83 nM. With `O=C(NCc1cccc(Oc2ccc(C(F)(F)F)cc2)c1)[C@@H]1CCCN1S(=O)(=O)c1nccs1` [Example 183, (2S)-1-thiazol-2-ylsulfonyl-N-[[3-[4-(trifluoromethyl)phenoxy]phenyl]methyl]pyrrolidine-2-carboxamide], the IC50 worked out at 3300 nM. For `O=C(NCc1cccc(OCc2ccc(C(F)(F)F)cc2)c1)[C@@H]1CCCN1S(=O)(=O)c1nccs1` [Example 184, (2S)-1-thiazol-2-ylsulfonyl-N-[[3-[[4-(trifluoromethyl)phenyl]methoxy]phenyl]methyl]pyrrolidine-2-carboxamide], the IC50 was 980 nM.
